This is an account of results in patent US11793792B2, “Composition for prevention and treatment of hair growth disorders” (GIULIANI S.P.A., priority 2018, dated 2023).

The test system of assay [1] is Lef1. The assay can be described thus: LEF1 mRNA expression (RT-PCR) in Human Follicle Dermal Papilla Cells (HFDPC). The class given is cell-based. The settings on record: 24 h incubation; for Lef1 fold of change mRNA expression: normalized to GAPDH, relative to untreated calibrator (vehicle = 1). An excerpt: In the present test, Hair cell line (derma papilla cells) were used rather than human hair follicle, as in the experiment of Example 4.
We evaluated the stimulation of Lef1 (marker of hair growth) and we retested compound 1 and compound 5 and we use also included the compound WAY-316660, a relatively non-toxic specific antagonist of SFRP1, which has already been used for the treatment of osteoporosis, for its known hair growth promotion activity (Rif. Hawkshaw et al. Plos Biol, 2018; https://journals.plos.org/plosbiology/article?id=10.1371/journal.pbio.2003705).
Biological Model Human Follicle Dermal Papilla Cells (HFDPC)
The cell line was cultured in Follicle Dermal Papilla Cell medium in 25 cm^2 culture flasks at 37° C., 5% CO2. Every two days confluent cultures were splitted 1:3-1:6, after washing with PBS 1× (without Ca2+ and Mg2+), using Trypsin/EDTA and seed at 2-5·10^4 cell/cm^2, 37° C., 5% CO2.
The expression of LEF1 was investigated by RT-PCR. The analysis was performed according to the reported method (Gibson et al, 1996; Heid et al, 1996) using TaqMan Gene Expression Assay supplied by Applied Biosystems. Briefly, within a gene-specific PCR oligonucleotide primer pair, an oligonucleotide probe labelled with a reporter fluorescent dye (FAM) at the 50-end and a quencher fluorescent dye (TAMURA) at the 30-end was designed. When the probe was intact, the reporter dye emission was quenched. During the extension phase of the PCR cycle, the nucleolytic activity of the DNA polymerase cleaved the hybridization probe and released the reporter dye from the probe. Fluorescence intensity produced during PCR amplifications was monitored by a sequence detector directly in the reaction tube (“real time”). A computer algorithm compared the amount of reporter dye emission with the quenching dye emission and calculated the threshold cycle number (CT) when signals reached ten times the standard deviation of the baseline, from which the levels of the mRNAs transcribed from the various genes tested were obtained (Gibson et al, 1996).
Gene expression analysis involves four following step: • 1. Treatments of cells with active compounds for 24 h; • 2. RNA extraction; • 3. cDNA retro transcription; • 4. Quantitative RT-PCR; Day 1: Seed cells
When the cells (Human Follicle Dermal Papilla Cells) reached approximately 80% confluence, they were harvested with trypsin/EDTA and seeded at a density of 1×10^6 cells/ml into 12-well plates and then incubated at 37° C., 5% CO2 (24 h).
When the cells reached approximately 80% confluence, complete medium was removed; cells were washed once with PBS 1× and the incubated in Human Follicle Dermal Papilla Cells at 37° C., 5% CO2 for at least 24 h;
Compounds to be tested (WAY316606, 1, 5, 7, 17, 18, 20, 21, 24) were dissolved in DMSO and diluted at final concentration in Human Follicle Dermal Papilla Cells.
Cells were then incubated at 37° C., 5% CO2 for different 24 h.
Total RNAs were extracted from the cells using Tri Reagent (Thermo Fisher), that is a single, homogenous solution for the isolation of total RNA. This procedure is an improvement of the single-step method reported by (Chomczynski and Mackey, 1995) for total RNA isolation. Tri Reagent, a mixture of guanidine thiocyanate and phenol in a monophase solution, effectively dissolves DNA, RNA, and protein on homogenization or lysis of tissue sample and contains a unique combination of denaturants and RNase inhibitors and is used in a convenient, single-step disruption/separation procedure.
Total RNA, extracted and quantified, was amplified using the “PRIME SCRIPT RT reagent kit (Perfect Real time) (Takara).
For amplification we used the Real time PCR System Mx3000P (Stratagene) and each total RNA was amplified in duplicate.
The RT-PCR analysis was set, using TaqMan linear probes (Applied Biosystems). Those probes are the most widely used and published detection chemistry for qPCR applications. […]

Assay [2] relates to Lef1. The assay can be described thus: Lef1 gene expression (qRT-PCR) in human hair follicle organ culture. The class given is cell-based. The note with it: microdissected human anagen VI scalp hair follicles; 15 μM; treated 6 hours; normalized on GAPDH; vehicle = 1; N=8 HFs/group from 1 donor. Here is the method:
Evidence of the activity of compounds of the invention is provided by the expression of Lymphoid enhancer binding factor-1 (Lef1), which plays an important role in bulge stem cells cell growth and differentiation (International Journal of Medical Sciences 2013; 10 (6):738-746).
These products were reconstituted in DMSO (stock solution) and intermediate or working solutions were prepared diluting the stock or the intermediate solution in William's E medium. […]
RNA was extracted from hair follicles with RNeasy kit (Qiagen, USA), and reverse transcribed with Tetro cDNA synthesis kit (Bioline) according to manufacturer's instructions. qPCR was performed in QuantStudio3 (Thermo Fisher) with Taqman probe for Axin2 (Hs00610344_m1, Thermo Fisher), Lef1 (Hs01547250_m1, Thermo Fisher), b-actin (Hs01060665_g1, Life Technologies) and Gapdh (Hs02758991_g1, Thermo Fisher). Expression levels were calculated with the delta-delta CT method. […]
On the technique in general: Real-time PCR tracks product formation cycle by cycle.

With `N=C1NC(=O)C(CC(=O)Nc2scc(C3CCC3)c2C(N)=O)S1` (centres unmarked) [Compound C24], the “Lef1 fold of change mRNA expression” value in the assay with Lef1 [1] amounted to 1.88.

For the molecule `CCOC(=O)c1c(NC(=O)CC2SC(=N)NC2=O)sc(Br)c1C` (centres unmarked) [Compound C7], in the assay with Lef1 [1], the “effect on LEF1 mRNA expression / activity (in words)” value was “more active” and the “Lef1 fold of change mRNA expression” value was 2.46.

Regarding `CCOC(=O)c1c(NC(=O)CC2SC(=N)NC2=O)sc(C)c1C` (centres unmarked) [Compound C5, 2-(2-(2-Imino-4-oxo-thiazolidin-5-yl)-acetylamino)-4,5-dimethyl-thiophene-3-carboxylic acid ethyl ester], the “genic expression of Lef1 (mRNA), mean” value in the assay with Lef1 [2] is 6.134. Further, in the assay on Lef1 [1], the “effect on LEF1 mRNA expression / activity (in words)” value is “more active” and the “Lef1 fold of change mRNA expression” value is 6.05. Also, the “effect on LEF1 mRNA expression / activity (in words)” value in the assay with Lef1 [1] (listed as 5) is reported as “major induction of Lef1”.

Turning to `CCOC(=O)c1c(C2CC2)csc1NC(=O)CC1SC(=N)NC1=O` (centres unmarked) [Compound C21], the “Lef1 fold of change mRNA expression” value with Lef1 [1] is recorded as 1.79.

As to `COC(=O)c1cc(-c2ccccc2)sc1NC(=O)CC1SC(=N)NC1=O` (centres unmarked) [Compound C18], the “Lef1 fold of change mRNA expression” value in the assay on Lef1 [1] turned out to be 1.56.

For the molecule `CCOC(=O)c1c(NC(=O)CC2SC(=N)NC2=O)sc(C)c1-c1ccccc1` (centres unmarked) [Compound C20], in the assay on Lef1 [1], the “Lef1 fold of change mRNA expression” value worked out at 1.39.

As for `COC(=O)c1ccsc1NC(=O)CC1SC(=N)NC1=O` (centres unmarked) [Compound C17], in the assay with Lef1 [1], the “effect on LEF1 mRNA expression / activity (in words)” value is “more active” and the “Lef1 fold of change mRNA expression” value amounted to 2.52.

On to `O=S(=O)(NC1CCNCC1)c1cc(S(=O)(=O)c2ccccc2)ccc1C(F)(F)F` [WAY-316606, reference compound], for which the “Lef1 fold of change mRNA expression” value in the assay with Lef1 [1] was found to be 2.18.

In the case of `COC(=O)c1c(NC(=O)CC2SC(=N)NC2=O)sc(C)c1C` (centres unmarked) [Compound C1, 2-(2-(2-Imino-4-oxo-thiazolidin-5-yl)-acetylamino)-4,5-dimethyl-thiophene-3-carboxylic acid methyl ester], in the assay on Lef1 [2], the “genic expression of Lef1 (mRNA), mean” value amounted to 3.425. Further, the “effect on LEF1 mRNA expression / activity (in words)” value in the assay with Lef1 [1] is given as “more active”; in the assay with Lef1 [1] (listed as 1) it was “major induction of Lef1”. The “Lef1 fold of change mRNA expression” value in the assay with Lef1 [1] was determined as 8.43.
